For two compounds, recovery, Papp A→B and Papp B→A results are on record in paper PMC11968394, “The effect of deuterated PLK1 inhibitor on its safety and efficacy in vivo” (Frontiers in Oncology, 2025).

Like-named read-outs stand apart in the source and are kept apart here.

A short description of this data set: Caco-2 permeability assay. The class given is in vitro ADME. The conditions noted are these: human; for Papp A→B at 2 h, 5 μM / Papp B→A at 2 h, 5 μM: Caco-2, 5 μM. The procedure:
Caco-2 cells were cultured in 10% FBS DMEM for 14-21 days before assays. […] HBSS was added to the opposite chamber. After 2 hours incubation at 37°C, samples were analyzed by LC-MS/MS. Fluorescein leakage was tested by adding 100 μM fluorescein to the upper chamber and measuring fluorescence after 30 minutes.

Setting [1] is: Caco-2, Caco-2, B-A, read-out: Recovery B-A%.

`C[C@H]1O[C@@H](O[C@H]2[C@@H](O)C[C@H](O[C@H]3[C@@H](O)C[C@H](O[C@H]4CC[C@@]5(C)[C@H](CC[C@@H]6[C@@H]5C[C@@H](O)[C@]5(C)[C@@H](C7=CC(=O)OC7)CC[C@]65O)C4)O[C@@H]3C)O[C@@H]2C)C[C@H](O)[C@@H]1O` [Digoxin]: the Papp A→B at 2 h, 5 μM is 0.9 ×10⁻⁶ cm/s and the Papp B→A at 2 h, 5 μM turned out to be 26.1 ×10⁻⁶ cm/s. The recovery at 2 h, 5 μM (Caco-2, Caco-2, A-B, read-out: Recovery A-B%) stood at 78.5%. Also, under setting [1], the recovery at 2 h, 5 μM was 101%.
`CC(C)NCC(O)COc1cccc2ccccc12` (stereo not shown) [Propraolol, Propranolol]: the Papp A→B at 2 h, 5 μM is 22.3 ×10⁻⁶ cm/s and the apparent permeability from basolateral to apical (Papp B→A) at 2 h, 5 μM came to 14.7 ×10⁻⁶ cm/s. Under setting [1], the recovery at 2 h, 5 μM was 84.9%.
